Assay results taken from ChEMBL document CHEMBL5360654, “Indazole as a Phenol Bioisostere: Structure-Affinity Relationships of GluN2B-Selective NMDA Receptor Antagonists” (J Med Chem, 2023).
Activity calls are given as the source filed them. No cut-off for these calls is given here.

Tests used:
[1] = target: T1, Glutamate receptor ionotropic, NMDA 2B (Homo sapiens, UniProt Q05586+Q13224); assay: Displacement of [3H]ifenprodil from human GluN2B expressed in mouse L-M(TK-) cell membrane coexpressing GluN1a assessed as inhibition constant measured after 120 mins by competitive binding assay; assay type: cell membranes
T1 sequence (Q13224 whole entry, one chain of several): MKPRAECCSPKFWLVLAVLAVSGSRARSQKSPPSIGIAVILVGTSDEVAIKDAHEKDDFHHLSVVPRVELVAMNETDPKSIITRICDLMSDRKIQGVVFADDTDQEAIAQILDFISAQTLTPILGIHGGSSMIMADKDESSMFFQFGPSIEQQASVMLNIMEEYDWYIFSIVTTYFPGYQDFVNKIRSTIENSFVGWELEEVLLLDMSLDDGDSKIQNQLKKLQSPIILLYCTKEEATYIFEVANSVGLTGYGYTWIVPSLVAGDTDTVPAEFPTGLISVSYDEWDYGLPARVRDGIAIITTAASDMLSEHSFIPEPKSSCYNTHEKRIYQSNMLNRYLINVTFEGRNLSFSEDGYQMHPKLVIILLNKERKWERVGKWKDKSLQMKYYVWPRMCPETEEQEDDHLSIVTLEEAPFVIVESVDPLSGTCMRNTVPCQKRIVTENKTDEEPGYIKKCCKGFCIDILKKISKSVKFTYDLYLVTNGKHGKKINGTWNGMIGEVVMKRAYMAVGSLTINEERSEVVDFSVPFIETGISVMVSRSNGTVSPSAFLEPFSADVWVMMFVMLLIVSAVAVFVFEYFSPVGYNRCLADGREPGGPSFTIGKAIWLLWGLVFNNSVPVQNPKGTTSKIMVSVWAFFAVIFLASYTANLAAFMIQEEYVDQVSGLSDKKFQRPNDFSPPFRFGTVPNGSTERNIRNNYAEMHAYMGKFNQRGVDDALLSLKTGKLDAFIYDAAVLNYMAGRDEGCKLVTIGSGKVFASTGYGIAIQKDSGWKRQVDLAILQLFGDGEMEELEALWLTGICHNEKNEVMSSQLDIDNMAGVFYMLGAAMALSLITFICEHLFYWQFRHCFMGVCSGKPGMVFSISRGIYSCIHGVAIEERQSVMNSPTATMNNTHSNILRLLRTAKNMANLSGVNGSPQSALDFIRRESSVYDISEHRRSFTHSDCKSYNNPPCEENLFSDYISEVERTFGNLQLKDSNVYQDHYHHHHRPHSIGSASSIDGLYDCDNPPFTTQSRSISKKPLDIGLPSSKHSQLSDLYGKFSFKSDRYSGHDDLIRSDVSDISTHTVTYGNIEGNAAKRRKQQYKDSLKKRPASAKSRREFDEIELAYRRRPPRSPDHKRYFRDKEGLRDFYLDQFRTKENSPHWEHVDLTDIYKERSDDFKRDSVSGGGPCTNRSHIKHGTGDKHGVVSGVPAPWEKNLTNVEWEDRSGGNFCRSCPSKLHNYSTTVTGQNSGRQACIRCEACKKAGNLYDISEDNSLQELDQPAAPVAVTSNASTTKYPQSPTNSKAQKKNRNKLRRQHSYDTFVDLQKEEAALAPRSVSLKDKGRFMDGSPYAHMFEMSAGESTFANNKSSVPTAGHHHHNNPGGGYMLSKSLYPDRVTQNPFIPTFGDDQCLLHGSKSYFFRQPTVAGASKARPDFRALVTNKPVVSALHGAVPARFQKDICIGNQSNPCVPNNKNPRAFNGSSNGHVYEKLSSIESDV

[2] = target: T2, Sigma intracellular receptor 2 (Rattus norvegicus, UniProt Q5U3Y7); assay: Displacement of [3H]di-o-tolylguanidine from sigma2 receptor in rat liver membrane assessed as inhibition constant measured after 120 mins by scintillation counting method; assay type: cell membranes
T2 sequence (Q5U3Y7 whole entry): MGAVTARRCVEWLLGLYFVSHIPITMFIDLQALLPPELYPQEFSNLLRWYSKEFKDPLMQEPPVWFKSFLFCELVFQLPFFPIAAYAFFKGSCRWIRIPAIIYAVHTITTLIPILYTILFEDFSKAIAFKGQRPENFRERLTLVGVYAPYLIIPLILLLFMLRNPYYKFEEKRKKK

[3] = target: Sigma non-opioid intracellular receptor 1 (Cavia porcellus, UniProt Q60492); assay: Displacement of [3H]-(+)-pentazocine from sigma1 receptor in guinea pig brain membrane assessed as inhibition constant measured after 120 mins by scintillation counting method; assay type: cell membranes
Chain of Sigma non-opioid intracellular receptor 1 (Q60492 whole entry): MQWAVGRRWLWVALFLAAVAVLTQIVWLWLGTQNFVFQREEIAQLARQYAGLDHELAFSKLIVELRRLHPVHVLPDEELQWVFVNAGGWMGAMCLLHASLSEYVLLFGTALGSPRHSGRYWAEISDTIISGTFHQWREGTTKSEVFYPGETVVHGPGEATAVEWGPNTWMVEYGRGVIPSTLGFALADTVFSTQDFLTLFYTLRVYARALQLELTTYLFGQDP

[4] = Drug metabolism in rat liver microsome assessed as formation of glucuronide metabolite (2S,3S,4S,5R,6S)-6-(4-((1R,2S)-3-(4-benzylpiperidin-1-yl)-1-hydroxy-2-methylpropyl)phenoxy)-3,4,5-trihydroxytetrahydro-2H-pyran-2-carboxylic acid in presence of NADPH/UDP-GA by LC-MS analysis; assay type: ADME; conditions: microsomes
[5] = target: T1, Glutamate receptor ionotropic, NMDA 2B; assay: Antagonist activity at GluN2B receptor (unknown origin) expressed in Xenopus oocytes coexpressing GluN1a at -70 mV holding potential in presence of (S)-glutamate/glycine by TEVC analysis; assay type: cell-based, Oocyte
[6] = Drug metabolism in rat liver microsome assessed as formation of glucuronide metabolite (2S,3S,4S,5R,6R)-6-(5-((R)-3-(4-benzylpiperidin-1-yl)-1-hydroxypropyl)-1H-indazol-1-yl)-3,4,5-trihydroxytetrahydro-2H-pyran-2-carboxylic acid in presence of NADPH/UDP-GA by LC-MS analysis; assay type: ADME; conditions: microsomes
[7] = Metabolic stability in rat liver microsome assessed as intact compound incubated for 90 mins in presence of NADPH by LC-MS analysis; assay type: ADME; conditions: liver microsomes, read-out: Stability
[8] = Lipophilicity, log D of compound at pH 7.4 by LC-MS analysis; assay type: physicochemical; conditions: buffer
[9] = target: Glutamate receptor ionotropic, NMDA 2B (Homo sapiens) (UniProt Q13224); assay: Antagonist activity at GluN2B receptor (unknown origin) expressed in Xenopus oocytes coexpressing GluN1a at 1 uM at -70 mV holding potential in presence of (S)-glutamate/glycine by TEVC analysis; assay type: cell-based; conditions: Oocyte, filed as antagonist
Chain of Glutamate receptor ionotropic, NMDA 2B (Homo sapiens) (Q13224 27-1484 limits assumed): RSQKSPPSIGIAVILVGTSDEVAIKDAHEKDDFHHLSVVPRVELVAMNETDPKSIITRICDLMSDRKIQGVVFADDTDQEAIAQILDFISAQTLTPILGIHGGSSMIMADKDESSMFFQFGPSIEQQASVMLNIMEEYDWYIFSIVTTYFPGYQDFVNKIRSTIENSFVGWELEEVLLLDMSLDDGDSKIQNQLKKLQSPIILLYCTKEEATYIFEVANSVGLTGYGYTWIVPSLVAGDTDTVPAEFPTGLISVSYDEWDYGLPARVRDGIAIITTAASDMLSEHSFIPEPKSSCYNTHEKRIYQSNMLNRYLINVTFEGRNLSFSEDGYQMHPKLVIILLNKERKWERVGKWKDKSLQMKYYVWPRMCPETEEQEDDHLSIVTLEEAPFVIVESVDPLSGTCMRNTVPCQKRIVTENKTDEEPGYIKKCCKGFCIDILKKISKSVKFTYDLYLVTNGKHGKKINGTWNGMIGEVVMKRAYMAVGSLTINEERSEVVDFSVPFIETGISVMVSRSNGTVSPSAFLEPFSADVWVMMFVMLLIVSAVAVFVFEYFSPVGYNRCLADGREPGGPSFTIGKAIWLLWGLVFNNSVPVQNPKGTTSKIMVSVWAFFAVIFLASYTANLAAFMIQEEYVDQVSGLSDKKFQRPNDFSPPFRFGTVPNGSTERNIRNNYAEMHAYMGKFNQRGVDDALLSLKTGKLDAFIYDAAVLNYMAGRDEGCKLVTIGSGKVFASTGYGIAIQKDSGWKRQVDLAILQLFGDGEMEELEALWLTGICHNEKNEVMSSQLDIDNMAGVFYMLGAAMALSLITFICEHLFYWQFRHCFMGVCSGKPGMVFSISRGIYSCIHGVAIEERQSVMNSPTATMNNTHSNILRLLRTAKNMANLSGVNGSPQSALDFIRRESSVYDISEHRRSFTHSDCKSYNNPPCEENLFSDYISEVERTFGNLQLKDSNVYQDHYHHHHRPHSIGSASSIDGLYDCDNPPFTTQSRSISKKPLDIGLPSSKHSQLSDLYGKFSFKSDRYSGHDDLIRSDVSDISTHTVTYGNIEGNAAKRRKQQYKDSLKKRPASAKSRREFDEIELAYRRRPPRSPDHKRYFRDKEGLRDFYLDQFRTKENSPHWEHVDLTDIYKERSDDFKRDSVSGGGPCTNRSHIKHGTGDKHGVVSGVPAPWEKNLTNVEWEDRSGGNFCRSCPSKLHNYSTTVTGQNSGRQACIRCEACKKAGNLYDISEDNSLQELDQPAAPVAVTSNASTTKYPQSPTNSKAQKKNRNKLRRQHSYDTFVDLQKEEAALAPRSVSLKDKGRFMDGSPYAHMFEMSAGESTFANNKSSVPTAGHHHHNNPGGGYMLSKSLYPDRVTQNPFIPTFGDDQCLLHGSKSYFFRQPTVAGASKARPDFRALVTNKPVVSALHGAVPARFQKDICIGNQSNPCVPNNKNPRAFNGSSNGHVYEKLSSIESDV

[10] = target: Glutamate receptor ionotropic, NMDA 2B (Homo sapiens) (UniProt Q13224); assay: Antagonist activity at GluN2B receptor (unknown origin) expressed in Xenopus oocytes coexpressing GluN1a at 10 uM at -70 mV holding potential in presence of (S)-glutamate/glycine by TEVC analysis relative to control; assay type: cell-based; conditions: Oocyte, filed as antagonist
[11] = Drug metabolism in rat liver microsome assessed as formation of glucuronide metabolite (2S,3S,4S,5R,6S)-6-(4-(3-(4-(4-fluorobenzyl)piperidin-1-yl)prop-1-yn-1-yl)phenoxy)-3,4,5-trihydroxytetrahydro-2H-pyran-2-carboxylic acid in presence of NADPH/UDP-GA by LC-MS analysis; assay type: ADME; conditions: microsomes
[12] = target: Glutamate NMDA receptor; GRIN1/GRIN2B (Homo sapiens, UniProt Q05586+Q13224); assay: Antagonist activity at GluN1A/GluN2B receptor (unknown origin) expressed in Xenopus oocytes by voltage clamp method; assay type: cell-based, Oocyte
Chain of Glutamate NMDA receptor; GRIN1/GRIN2B (Q13224 whole entry, other chains not shown): as the sequence (Q13224 whole entry, one chain of several) above

[13] = Drug metabolism in rat liver microsome assessed as formation of glucuronide metabolite (2S,3S,4S,5R,6R)-6-(5-((S)-3-(4-benzylpiperidin-1-yl)-1-hydroxypropyl)-1H-indazol-1-yl)-3,4,5-trihydroxytetrahydro-2H-pyran-2-carboxylic acid in presence of NADPH/UDP-GA by LC-MS analysis; assay type: ADME; conditions: microsomes
[14] = Drug metabolism in rat liver microsome assessed as formation of glucuronide metabolite (2S,3S,4S,5R,6R)-6-(5-(3-(4-(4-fluorobenzyl)piperidin-1-yl)prop-1-yn-1-yl)-1H-indazol-1-yl)-3,4,5-trihydroxytetrahydro-2H-pyran-2-carboxylic acid in presence of NADPH/UDP-GA by LC-MS analysis; assay type: ADME; conditions: microsomes

Compound | Ki [1] | Ki [2] | Ki [3] | other results
Fc1ccc(CC2CCN(CC#Cc3ccc4cn[nH]c4c3)CC2)cc1 | 0.035 µM | 0.85 µM | 0.026 µM | –
C[C@@H](CN1CCC(Cc2ccccc2)CC1)[C@@H](O)c1ccc(O)cc1 | – | – | – | Drug metabolism [4]: Metabolite_Detected
O[C@H](CCN1CCC(Cc2ccccc2)CC1)c1ccc2[nH]ncc2c1 | 0.265 µM | 0.241 µM | 0.058 µM | IC50 [5]: 0.062 µM; Drug metabolism [6]: Metabolite_Notdetected; remaining at 1.5 h [7]: ~67%
OC(CCN1CCC(Cc2ccccc2F)CC1)c1ccc2[nH]ncc2c1 (stereo not given) | 0.038 µM | 0.119 µM | 0.224 µM | –
C(#Cc1ccc2cn[nH]c2c1)CN1CCC(Cc2ccccc2)CC1 | 0.053 µM | 0.52 µM | 0.012 µM | –
OC(CCN1CCC(Cc2ccccc2)CC1)c1ccc2[nH]ncc2c1 (stereo not given) | 0.038 µM | 0.088 µM | 0.055 µM | logD [8]: 1.75; inhibition [9]: Active; inhibition [10]: > 80%
Oc1ccc(C#CCN2CCC(Cc3ccc(F)cc3)CC2)cc1 | 0.012 µM | 0.037 µM | 0.036 µM | logD [8]: 4.4; Drug metabolism [11]: Metabolite_Detected
Cn1cc2cc(C#CCN3CCC(Cc4ccccc4)CC3)ccc2n1 | 0.136 µM | 0.063 µM | 0.023 µM | –
Fc1ccc(CC2CCN(C/C=C\c3ccc4[nH]ncc4c3)CC2)cc1 | 0.042 µM | 0.097 µM | 0.077 µM | –
C(#Cc1ccc2[nH]ncc2c1)CN1CCC(Cc2ccccc2)CC1 | 0.011 µM | 0.011 µM | 0.026 µM | logD [8]: 4.17; IC50 [12]: 0.38 µM
Fc1ccc(CC2CCN(C/C=C/c3ccc4[nH]ncc4c3)CC2)cc1 | 0.02 µM | 0.037 µM | 0.01 µM | –
O[C@@H](CCN1CCC(Cc2ccccc2)CC1)c1ccc2[nH]ncc2c1 | 0.093 µM | 0.124 µM | 0.086 µM | Drug metabolism [13]: Metabolite_Notdetected; IC50 [5]: 0.072 µM; remaining at 1.5 h [7]: ~67%
C(=C/c1ccc2[nH]ncc2c1)/CN1CCC(Cc2ccccc2)CC1 | 0.12 µM | 0.135 µM | 0.562 µM | –
O=C(CCN1CCC(Cc2ccc(F)cc2)CC1)c1ccc2[nH]ncc2c1 | 0.056 µM | 0.051 µM | 0.021 µM | –
c1ccc(CC2CCN(CCCc3ccc4[nH]ncc4c3)CC2)cc1 | 0.0057 µM | 0.012 µM | 0.0075 µM | logD [8]: 2.63; inhibition [10]: > 80%
O=C(CCN1CCC(Cc2ccccc2)CC1)c1ccc2[nH]ncc2c1 | 0.018 µM | 0.018 µM | 0.0088 µM | logD [8]: 2.64; inhibition [9]: Active; inhibition [10]: > 80%
Cn1cc2cc(C#CCN3CCC(Cc4ccc(F)cc4)CC3)ccc2n1 | 0.182 µM | 0.151 µM | 0.032 µM | –
Cn1ncc2cc(C#CCN3CCC(Cc4ccccc4)CC3)ccc21 | 0.038 µM | 0.32 µM | 0.02 µM | –
Fc1ccc(CC2CCN(CCCc3ccc4[nH]ncc4c3)CC2)cc1 | 0.013 µM | 0.014 µM | 0.0042 µM | –
Fc1ccccc1CC1CCN(CC#Cc2ccc3[nH]ncc3c2)CC1 | 0.025 µM | 0.031 µM | 0.057 µM | –
Cn1ncc2cc(C#CCN3CCC(Cc4ccc(F)cc4)CC3)ccc21 | 0.029 µM | 0.063 µM | 0.04 µM | –
O=C(CCN1CCC(Cc2ccccc2F)CC1)c1ccc2[nH]ncc2c1 | 0.02 µM | 0.019 µM | 0.017 µM | –
C(=C\c1ccc2[nH]ncc2c1)/CN1CCC(Cc2ccccc2)CC1 | 0.0066 µM | 0.01 µM | 0.0027 µM | –
OC(CCN1CCC(Cc2ccc(F)cc2)CC1)c1ccc2[nH]ncc2c1 (stereo not given) | 0.032 µM | 0.018 µM | 0.012 µM | logD [8]: 2.02
Fc1ccc(CC2CCN(CC#Cc3ccc4[nH]ncc4c3)CC2)cc1 | 0.013 µM | 0.013 µM | 0.0066 µM | logD [8]: 4.35; Drug metabolism [14]: Metabolite_Notdetected
Oc1ccc(C#CCN2CCC(Cc3ccccc3)CC2)cc1 | – | – | – | IC50 [12]: 0.1 µM
